Laboratory results reported in US11331291B2, “Method of and improved composition for treating triterpene-responsive conditions, diseases or disorders” (PHOENIX BIOTECHNOLOGY, INC., priority 2017, dated 2022).
Like-named read-outs stand apart in the source and are kept apart here.

Columns and labels:
[1] = system: ARE target genes (Srx, Hmox1); details: 6 h; prior art FIG. 3; compared among UA, BA, OA; cited from earlier work
[2] = system: ARE target genes (Srx, Hmox1); experiment: ARE gene expression qPCR in rat primary corticostriatal co-cultures; type: cell-based
Protocol: FIG. 3 (prior art: Van Kanegan: vide supra) depicts the results of ARE gene expression assays for Fraction 0-4 and the individual triterpenes oleanolic acid, ursolic acid, betulinic acid and uvaol (also referred to as uvalol). “X” symbols denote concentrations of compounds which induced toxicity and for which recovery of residual mRNA was insufficient to support qPCR analysis. Rat primary corticostriatal co-cultures were treated for 6 h with Fraction 0-4 (in μg/ml) or oleanolic acid, ursolic acid, betulinic acid, or uvaol (all in μM) at the concentrations indicated, then harvested and processed for qPCR analysis of the ARE target genes shown. Quantitative RNA values were normalized to the GAPDH reference control and fold-expression changes are expressed relative to the DMSO-carrier only condition (“--”) set to a value of 1. Dark bars denote statistically significant differences with respect to the DMSO-carrier only control by a Student's t-test at p<0.05.
FIG. 4 depicts the results of expression assays for Fraction 0-4 and the individual triterpenes ursolic acid and betulinic acid at more closely-spaced concentration ranges. Rat primary corticostriatal co-cultures were treated for 6 h with Fraction 0-4 (in μg/ml) or ursolic acid and betulinic acid (in μM) at the concentrations indicated, then harvested and processed for qPCR analysis of the ARE target genes shown. Quantitative RNA values were normalized to the GAPDH reference control and fold-expression changes are expressed relative to the DMSO-carrier only condition (“--”) set to a value of 1. Dark blue bars denote statistically significant differences with respect to the DMSO-carrier only control by a Student's t-test at p<0.05.
FIGS. 10A and 10B depict the results of comparative Srx (FIG. 10A) and Hmox1 (FIG. 10B) expression assays for PBI-05204, PBI-04711 (also referred to as Fxn 0-4), oleanolic acid (O), ursolic acid (U), betulinic acid (B) and combinations of the triterpenes present at the specified molar ratios. Quantitative RNA values were normalized to the GAPDH reference control and fold-expression changes are shown relative to the DMSO-carrier only condition set to a value of 1. Dark blue bars denote statistically significant differences with respect to the DMSO-carrier only control by a Student's t-test at p<0.05. Striped, red bars denote conditions which induced excessive levels of ARE gene expression, namely, by more than 10-fold.
For qPCR quantification of ARE target gene expression levels, cortical and striatal neurons were plated onto 96-well plates containing mature glial cultures and cultured for 96 h. Composition was added to cultures at the indicated concentrations for 6 h. At the end of the treatment period, cells were lysed and total RNA was isolated using Absolutely RNA mini-prep kits (Agilent Technologies/Stratagene). cDNA was generated using oligo dT primers and Superscript II reverse transcriptase (Invitrogen). Resulting cDNA was used for quantitative PCR of gene transcripts using SYBR Green Real-Time PCR Master Mix (Life Technologies) and the following mouse primers, for: Gcic (forward-5′ […]-3′ (SEQ ID NO. 1) and reverse-5′-[…]-3′) (SEQ ID NO. 2), Ngo1 (forward-5′-GCCCGCATGCAGATCCT-3′ (SEQ ID NO. 3) and reverse 5′-[…]3′) (SEQ ID NO. 4), Srx (forward-5′-[…]-3′ (SEQ ID NO. 5) and reverse-5′-[…]-3′) (SEQ ID NO. 6), and Hmox1 (forward-5′-[…]-3′ (SEQ ID NO. 7) and reverse-5′-[…]-3′) (SEQ ID NO. 8) (Integrated DNA Technologies). […]

[3] = system: cortical pyramidal neurons; details: prior art FIG. 5; equimolar basis; cited from earlier work
[4] = system: primary corticalstriatal neuronal co-cultures containing glia; type: cell-based
Protocol: FIGS. 6A, 6B, 7A, 7B, 8A, and 8B depict the results of comparative cellular toxicities of the triterpenes to primary corticalstriatal neuronal co-cultures containing glia evaluated according to the example below: ursolic acid (FIGS. 6A, 6B), betulinic acid (FIGS. 7A, 7B) and oleanolic acid (FIGS. 8A, 8B). For FIGS. 6A, 7A and 8A, propidium iodide was added for one hour then the numbers of PI-positive cells were scored under automated high-content analysis on the Cellomics ArrayScan VTI. For FIGS. 6B, 7B and 8B, MTS substrate was added for two hours then co-culture wells were measured for absorbance at 450 nm using a multi-well plate reader.
We determined whether the reduced neuroprotective activity of Compositions I and II might be due to cellular toxicity of one or more of the individual triterpenes. We conducted a direct study of the cellular toxicities of oleanolic acid (OA), ursolic acid (UA), and betulinic acid (BA) using two independent measures of cell death: propidium iodide (PI) staining for nuclear breakdown and the MTS assay for cell metabolic activity. […] The MTS assay is a well-based assay in which cleavage of a tetrazolium reporter by mitochondrial enzymes produces colorimetric readout and reports relative numbers of healthy cells.

SMILES: CC1(C)CC[C@]2(C(=O)O)CC[C@]3(C)C(=CC[C@@H]4[C@@]5(C)CC[C@H](O)C(C)(C)[C@@H]5CC[C@]43C)[C@@H]2C1 [OA, oleanolic acid]
- inducing ARE gene expression as single agent [1]: relatively inactive
- ARE gene expression induction ([2]; single agent, any concentration tested, FIGS. 10A, 10B): not able to induce appreciable ARE gene expression
- neuroprotective activity of individual triterpenes in OGD assay [3]: higher activity than UA

SMILES: C=C(C)[C@@H]1CC[C@]2(C(=O)O)CC[C@]3(C)[C@H](CC[C@@H]4[C@@]5(C)CC[C@H](O)C(C)(C)[C@@H]5CC[C@]43C)[C@@H]12 [BA, betulinic acid]
- cellular toxicity ([2]; even at low concentration): caused cellular toxicity
- concentration leading to 50% loss of metabolic activity [4]: 5 to 15 µM

SMILES: C[C@H]1[C@H](C)CC[C@]2(C(=O)O)CC[C@]3(C)C(=CC[C@@H]4[C@@]5(C)CC[C@H](O)C(C)(C)[C@@H]5CC[C@]43C)[C@H]12 [UA, ursolic acid]
- inducing ARE gene expression as single agent [1]: considerably more potent
- cellular toxicity [2]: caused cellular toxicity
- upregulation of Srx and Hmox1 ([2]; 6 h, closely-spaced concentrations, FIG. 4): clear upregulation
- ARE gene expression induction (Srxn1) ([2]; single agent at 9 μM, relative to DMSO): > 10 fold
- concentration leading to 50% loss of metabolic activity [4]: 5 to 15 µM
- neuroprotective activity of individual triterpenes in OGD assay [3]: variable activity
